Two compounds from patent publication US12497597B2, “Methods of generating and expanding hematopoietic stem cells” (CHILDREN'S HOSPITAL MEDICAL CENTER, priority 2019, dated 2025) can be followed below.

In one test the test system is liver organoid cultures. Description: Notch dependency test: DLL4 added to Matrigel drops of liver organoid culture with hematopoietic cytokines. It counts as cell-based, human. The protocol:
Day 7 spheroids were collected by manual pipetting and pelleted by centrifugation. Media was aspirated and cells were embedded in 100% Matrigel by gentle pipetting to homogenize the cell pellet. Optionally, a Notch activator or ligand is added to the Matrigel (e.g. 10 μg/mL, of […]). Alternatively, optionally, UCB cells are added to the Matrigel for co-culture with organoids (e.g. 1,000 UCB cells per 75 μL of Matrigel). 250 μL Matrigel (Corning) was used per well of a 24-well plate of definitive endoderm culture. 75 μL Matrigel drops were made, 1 drop per each well of a fresh 24-well plate (VWR). The plates were placed at 37° C. in an atmosphere of 5% CO2/95% air for 5-15 minutes. After the Matrigel was solidified, Advanced DMEM/F12 with 1×B27, 1×N2, 2 mM L-glutamine, 15 mM HEPES, and 1× penicillin/streptomycin was added to the wells. This media was supplemented with 20 ng/mL BMP4 and 10 ng/mL, FGF2 for 4 days, and then the BMP4 and FGF2 were removed.
Organoids were isolated from Matrigel drops and washed with 1×PBS. HLOs were dissociated to single cells by treatment with Trypsin-EDTA (0.05%, with phenol red, Gibco) for 10 minutes. Cells were washed in DMEM/F12 with 10% FBS and suspended in PBS with 2% FBS. After filtration (e.g. through a 40-50 μm nylon filter), the single cells were subjected to flow cytometry with the following antibodies: anti-CD45-APC (Miltenyl, 130-098-143), anti-CD34-APC/Cy7 (BioLegend, 343513), anti-CD11b-PE/Cy7 (BioLegend, 301322), anti-CD19-BV421 (BioLegend, 302233), anti-CD27-AF700 (BioLegend, 356415), anti-CD43-FITC (BioLegend, 315204). For mouse engraftment experiments, anti-mouse CD45-BV421 (BioLegend, 103133) was used.
RNA was isolated using the RNeasy mini kit (Qiagen). Reverse transcription was carried out using the High-Capacity cDNA. Reverse Transcription Kit (Thermo Fisher) according to manufacturer's protocol. qPCR was carried out in duplicate using TagMan Gene Expression Master Mix (Applied Biosystems) and probes from the Universal Probe Library (Roche) on a QuantStudio 3 Real-Time PCR System (Thermo Fisher). […]

A further test deals with Notch activity. The test can be described thus: Notch inhibition in organoid cultures with the γ-secretase inhibitor DAPT. It counts as cell-based, human.

Consider “DLL4: Notch ligand added to the Matrigel drops during organoid seeding”, for which, in the test on liver organoid cultures (DLL4 1-10 μg/mL in Matrigel drops at organoid seeding, medium with IL-3, IL-34, GM-CSF 100 ng/mL each, FIG. 8), the “production of CD45+ hematopoietic cells” value is on record as “increased the efficiency of cytokines in producing CD45^+ hematopoietic cells”. In addition, the IL-6 expression result with liver organoid cultures (qPCR, organoids at day 18, DLL4 plus cytokines IL-3, IL-34, GM-CSF, FIG. 9A) is recorded as “significant increase”. The albumin expression entry in the test with liver organoid cultures (qPCR, organoids at day 18, DLL4 plus cytokines IL-3, IL-34, GM-CSF, FIG. 9B) is “modest decrease”.

In the case of `C[C@H](NC(=O)Cc1cc(F)cc(F)c1)C(=O)N[C@H](C(=O)OC(C)(C)C)c1ccccc1` [DAPT], the HES1 expression result in the test with Notch activity (different concentrations of DAPT, 4 days of treatment from day 6, FIG. 10C) was “decrease”. The albumin expression result with Notch activity (different concentrations of DAPT, 4 days of treatment from day 6, FIG. 10D) is reported as “maintaining albumin expression”. Also, the visible erythrocytes entry in the test on Notch activity (light microscopy, 100 μM DAPT vs DMSO control, 12 days of treatment, FIG. 10A) is reported as “decrease in visible erythrocytes”.
